Tests used:
four cancer cell lines = experiment: Cell viability assay (WST-8), four cancer cell lines; format: cell-based, human; conditions: concentrations up to 1000 nM, 72 h
Description: Cell viability assay was performed as previously described. The effect of DCN1 inhibitors on cell growth was evaluated by a WST-8 [2-(2-methoxy-4-nitrophenyl)-3-(4-nitrophenyl)-5-(2,4-disulfophenyl)-2H-tetrazolium, monosodium salt assay (Dojindo Molecular Technologies, Inc). Cells (2000–3000 cells in each well) were seeded in 96-well tissue culture plates in medium (100 μL) and treated with serial dilution of DCN1 inhibitors for 3 days. At the end of incubation, WST-8 dye (20 μL) was added to each well and incubated for 1–3 h, then the absorbance was measured in a microplate reader (Molecular Devices) at 450 nm. Cell growth inhibition was evaluated as the ratio of the absorbance of the sample to that of the control. The values were inserted into Prism software, and the curves and the EC50 values were produced by Prism software.

[1] = target: T1, cellular DCN3 protein in U2OS cells (Homo sapiens, UniProt Q8IWE4); experiment: Cellular thermal shift assay (CETSA), DCN3; format: cell-based; conditions: concentrations up to 1000 nM
T1 construct: endogenous in cells; host or cells: U2OS
Description: CETSA was performed as previously described. The U2OS cells (5 × 10^5 per sample) were treated with compounds or with DMSO for 1 h, washed with PBS for three times, and dissolved in 50 µL PBS supplemented with protease inhibitor, followed by heating at 53 °C in a Mastercycler gradient (Eppendorf, New York, USA). Treated cells were then subjected to snap-freezing in liquid nitrogen and thawed on ice for three cycles. The protein level of DCN1 and DCN3 in equal amount of the supernatant was examined by western blot methods. GAPDH was used as a control. Results are representative of three independent experiments.

neddylation of cullin 3 = experiment: Western blot, cullin 3 neddylation in THLE2 liver cells; format: cell-based, human
Description: Western blotting was performed as described previously. Treated cells were lysed by RIPA buffer supplemented with protease inhibitor. The expression level of indicated proteins was examined by immunoblotting analysis and GAPDH was used as the loading control. Antibodies were purchased commercially: cullin 1 (sc-17775, 1:500 dilution) and cullin 2 (sc-166506, 1:500 dilution) from Santa Cruz Biotech (Santa Cruz, CA); cullin 4A (PA5-14542, 1:1000 dilution), cullin 4B (PA5-50647, 1:1000 dilution), and DCN3 (DCUN1D3, PA5-44000, 1:1000 dilution) from Thermo Fisher Scientific (Wayne, MI); cullin 3 (2759, 1:1000), NRF2 (12721, 1:1000 dilution), HO-1 (70081, 1:1000 dilution), and Bim (2819, 1:1000 dilution) from Cell Signaling Technology (Boston, MA); DCN1 (GWB-E3D700, 1:1000 dilution) from GenWay Biotech (San Diego, CA); and cullin 5 (A302-173A, 1:500 dilution) from Bethyl Labs (Montgomery, TX). Results are representative of two independent experiments.

[2] = test system: APAP-induced liver injury; experiment: APAP-induced liver injury: H&E histology of liver; format: in vivo, mouse
Description: The in vivo studies were performed under animal protocols (PRO00007499) and (PRO00006638) approved by the Institutional Animal Care & Use Committee of the University of Michigan, in accordance with the recommendations in the Guide for the Care and Use of Laboratory Animals of the National Institutes of Health. C57BL/6 WT mice (~8 weeks, male, normal chow) were purchased from the Jackson Laboratory and randomly divided into eight groups (8–9 mice per group) treated (IP) as follows: phosphate-buffered saline vehicle once per day for 3 days (G1), APAP alone a single dose at 400 mg/kg on day 1 (G2), DI-1859 alone 25 mg/kg once per day for 3 days (G3), DI-1859 alone 50 mg/kg once per day for 3 days (G4), pretreatment (1 day before the APAP administration) with DI-1859 at 25 mg/kg once per day for 3 days followed with APAP at 400 mg/kg on day (G5), pretreatment (1 day before the APAP administration) with DI-1859 at 50 mg/kg once per day for 3 days followed with APAP at 400 mg/kg on day (G6), APAP a single dose at 400 mg/kg (3 h before the first DI-1859 administration) followed with DI-1859 at 25 mg/Kg once per day for 3 days (G7), and APAP a single dose at 400 mg/kg (3 h before the first DI-1859 administration) followed with DI-1859 at 50 mg/Kg once per day for 3 days (G8).
To induce acute liver injury, animals received PBS or APAP (400 mg/kg, sigma, A7085) through I.P. injection at 12 p.m. and were sacrificed 48 h afterward. To examine the protective effect of DI-1859 (groups 5 and 6), animals were I.P. injected with compound for 3 consecutive days (9 a.m. on each day, starting 1 day before APAP administration). To examine the restorative effect of DI-1859 (groups 7 and 8), animals were I.P. injected with compound 3 h after APAP administration followed by two additional treatments (9 a.m. on the next 2 days). Body weight and blood glucose level measurement, along with blood sample collection, were performed at 12 p.m. on each day.
Liver paraffin sections were stained with H&E.

T1 sequence (Q8IWE4 whole entry): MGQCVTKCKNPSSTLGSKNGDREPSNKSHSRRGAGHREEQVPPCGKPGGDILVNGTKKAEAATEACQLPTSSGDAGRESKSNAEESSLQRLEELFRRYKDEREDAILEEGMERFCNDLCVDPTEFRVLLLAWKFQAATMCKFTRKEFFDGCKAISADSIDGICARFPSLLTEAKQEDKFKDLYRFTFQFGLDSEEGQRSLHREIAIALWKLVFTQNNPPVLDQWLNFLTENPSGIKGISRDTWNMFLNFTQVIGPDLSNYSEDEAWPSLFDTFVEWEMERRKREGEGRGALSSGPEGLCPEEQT

With C=C(CN1CCOCC1)C(=O)NC[C@@H](NC(=O)[C@H](Cc1nc2ccc(C(C)C)cc2s1)NC(=O)CC)C1CCCCC1 [DI-1548] as the compound, how does the “cytotoxicity / cell viability” value (four cancer cell lines) read?
Its value is “no cytotoxicity”.

What about the “effect on the thermal stability of cellular DCN3 protein” value [1] of the same compound?
Its value is “no discernible effect”.

C=C(CN(C)C)C(=O)NC[C@@H](NC(=O)[C@H](Cc1nc2ccc(C(C)C)cc2s1)NC(=O)CC)C1CCCCC1 [DI-1859] was tested. Which “times more potent than MLN4924 in inhibition of the neddylation of cullin 3” value (neddylation of cullin 3) did it give?
Its value is ~ 30 times.

And the “liver tissue damage by the compound alone” value ([2]; 25 and 50 mg/kg qD for 3 days (G3, G4), ALT and histology)?
The value was “caused no liver tissue damage”.

What about the “effect on APAP-induced liver tissue damage (histology)” value (“effect … (histology)” for short) ([2]; prevention setting, 25 mg/kg) of the same compound?
The value was “largely abolished tissue distortion and greatly reduced acetaminophen-induced tissue damage”.

And the “effect … (histology)” value ([2]; prevention setting, 50 mg/kg)?
The value was “near completely prevented APAP-induced liver tissue damage”.

What about the “effect … (histology)” value ([2]; treatment setting, 25 and 50 mg/kg) of the same compound?
Its value is “significantly reduced the liver damage induced by APAP”.
